Data reported in article PMC4072668, “Mass Spectrometric Detection and Characterization of Atypical Membrane-Bound Zinc-Sensitive Phosphatases Modulating GABAA Receptors” (PLoS ONE, 2014).

Columns and labels:
[1] = tested on: PP5; set-up: method as in PMID 10617768; details: mammalian brain; cited from earlier work
[2] = tested on: PP1; set-up: method as in PMID 10617768; details: mammalian brain; cited from earlier work
[3] = tested on: PP7; set-up: method as in PMID 10617768; details: up to 1–10 µM; cited from earlier work
[4] = tested on: PP2A; set-up: method as in PMID 10617768; details: mammalian brain; cited from earlier work
[5] = tested on: GABAA receptor currents in pyramidal neurons; assay: Whole-cell patch clamp, rundown of GABAA currents in acutely dissociated cortical pyramidal neurons; type: cell-based, rat; details: 10 µM in the pipette
Method: Adult Sprague Dawley rats (35–40 days of age) were anesthetized by isoflurane and killed by decapitation. The brains were removed quickly and placed in cold artificial cerebro-spinal fluid (Ringer) containing (in mM) 126 NaCl, 3 KCl, 26 NaHCO3, 1.25 Na2HPO4, 2.5 CaCl2, 1.5 MgCl2, 10 D-glucose, saturated with carbogen gas (O2:CO2, 95:5%) pH 7.4. Cortical neurons were acutely dissociated from 400 µm thick slices by incubation in 3 mg/ml protease-XXIII (Sigma) at 32°C, followed by mechanical dissociation. After washing, the cells were transferred in a solution containing (in mM) 135 NaCl, 3 KCl, 2 CaCl2, 10 Hepes, 1 MgCl2, 7 TEA-Cl, 10 D-glucose, and 1 µM TTX, pH 7.4. Pyramidal neurons were recorded using borosilicate glass pipettes (4–5 MΩ) filled with a solution containing (in mM) 130 CsF, 10 CsCl, 4 NaCl, 0.5 CaCl2, 10 Hepes, 5 EGTA, and 7 Mg-ATP. Okadaic acid at 10 µM was added to this intracellular milieu for specific experiments.
Whole-cell peak currents induced by GABA (100 µM; fast applications of 1 sec pulses every 3 min) were measured for each application and normalized to the maximal response.
Figure 5 Effects of okadaic acid on the GABAA current rundown. GABAA currents were measured by whole-cell patch clamp on acutely dissociated cortical pyramidal neurons from Sprague Dawley rats. (A) Micrographs of a patched cell at two different magnifications, showing the rapid application device (left). (B) Rundown in cortical neuron: GABA was applied at a concentration of 100 µM during 1 second every 3 min. […] For each group the plot (Left) is the average of normalized currents. Error bars indicate the SEM.

[6] = tested on: PP2C; set-up: method as in PMID 10617768; details: up to 1–10 µM; cited from earlier work
[7] = tested on: alkaline phosphatase; set-up: method as in PMID 10617768; details: up to 1–10 µM; cited from earlier work
[8] = tested on: PTP; set-up: method as in PMID 10617768; details: up to 1–10 µM; cited from earlier work
[9] = tested on: PP4; set-up: method as in PMID 10617768; details: mammalian brain; cited from earlier work
[10] = tested on: membrane-bound phosphatase activities of washed cortical membrane; assay: LC-MS/MS phosphatase assay with effectors, N-terminal phosphopeptide pI2α1N-P as substrate; type: biochemical
Method: (§1) Phosphatasic activity of bovine, rat and human washed cortical membranes was measured by using synthetic phosphopeptides as substrates. Reactions were performed in presence of 50 µg/ml (total proteins) of washed cortical membrane, 10 mM Hepes-Tris pH 7.4 and 1 mM MgCl2. Enzymatic reactions were initiated by adding 10 µM of phosphopeptide incubated for 10 min at 30°C and stopped by adding ice-cold acetic acid at a final concentration of 10% (w/v). Following a 800 g centrifugation during 10 min at 4°C, the supernatants were analyzed by LC-MS/MS. […] For these reasons, and to avoid micro-capillary column obstruction we have preferentially used the micro-LC column to characterize the pharmacological profile of phosphatasic activities.
Quantification of appearance of the native peptide and disappearance of the phosphopeptide in different conditions was performed using the calibration curve plotted using the Xcalibur software (P/N 64018-XCALI version 1.3). The calibration curve and linear regression were constructed using a series of standards, native and phosphorylated equimolar mixture, N- or C-terminal peptides at different concentrations 0.5, 1, 2, 5 and 10 µM (n = 2) in 10 mM Hepes pH 7.4, 1 mM Mg^2+ and 10% acetic acid, which was the same milieu condition as in the phosphatase assay after stopping reactions. The linear regression represents peak area of MS/MS chromatogram spectra depending on the peptide concentration (Figure S1).
Different effectors were tested by addition to the incubation medium at variable concentration: the dicationic ions Mg^2+, Ca^2+, Zn^2+ were used as chloride, the polycation spermine as hydrochloride, the anion F^− as sodium fluoride (NaF), and the inhibitors of some known phosphatases okadaic acid and the two (+/−) enantiomers of p–bromotetramisole oxalate (p-Br-t). For the inhibitory effects, relative 50% inhibition concentration (IC50) values were either determined graphically with a log-scale for the concentration axis or by the ‘log (inhibitor) vs. response’ nonlinear fit of Prism 5 software (GraphPad), considering activity in the absence of inhibitor as 100%.
Figure 4 Effects of various inhibitors on the membrane-bound phosphatase activities. […] Incubations were performed at 30°C during 10 min. The activities are expressed as a percentage of that of control samples without inhibitors. Inhibition profiles of PPase activities by okadaic acid were performed using N-terminal phosphopeptide (A) or C-terminal phosphopeptide (B) as substrate. The data points are means ± SEM of 3 experiments. The red arrows indicate the different IC50. […] Data points are the average ± SEM of duplicate assays. (D) Effect of Ca^2+ ions, fluoride (F^−) and spermine (SPM^4+) on PPase activity using N-terminal phosphopeptide as substrate.

[11] = tested on: acid phosphatase; set-up: method as in PMID 10617768; details: up to 1–10 µM; cited from earlier work
[12] = tested on: membrane-bound phosphatase activities of washed cortical membrane; assay: LC-MS/MS phosphatase assay with effectors, C-terminal phosphopeptide pI2α1C-P as substrate; type: biochemical
Method: as §1
Quantification of appearance of the native peptide and disappearance of the phosphopeptide in different conditions was performed using the calibration curve plotted using the Xcalibur software (P/N 64018-XCALI version 1.3). […]
Figure 4 Effects of various inhibitors on the membrane-bound phosphatase activities. […] The activities are expressed as a percentage of that of control samples without inhibitors. […]

[13] = tested on: PP2B; set-up: method as in PMID 10617768; details: mammalian brain; cited from earlier work
[14] = tested on: PP6; set-up: method as in PMID 10617768; details: mammalian brain; cited from earlier work
[15] = tested on: GABAA receptor currents in pyramidal neurons; set-up: method as in PMID 15342727; details: 10 µM in the pipette milieu, four neurons; cited from earlier work

In the case of `C=C1[C@@H](O)[C@@H]2O[C@]3(CC[C@H](/C=C/[C@@H](C)[C@@H]4CC(C)=C[C@@]5(O[C@H](C[C@@](C)(O)C(=O)O)CC[C@H]5O)O4)O3)CC[C@H]2O[C@@H]1[C@@H](O)C[C@H](C)[C@H]1O[C@@]2(CCCCO2)CC[C@H]1C` [okadaic acid, Okadaic acid], the IC50 [1] is given as 1.4 to 10 nM, the IC50 [2] is given as 270 nM and the inhibition [3] is given as “not inhibited”. For the same compound, the IC50 [4] was 2 nM, the “GABAA current rundown in some cells” value [5] was “rundown could be abolished” and the “GABAA current rundown, 'Very Rapid' group of neurons vs control” value ([5]; n = 5, Dunnett's test Ns) was “not sensitive to okadaic acid”. The “GABAA current rundown, 'Mid Rapid', 'Mid Slow' and 'Very Slow' groups of neurons vs control” value ([5]; p<0.01 Mid Rapid, p<0.0001 Mid Slow and Very Slow) was “statistically different from the control”, the inhibition [6] was “not inhibited” and the inhibition [7] was “not inhibited”. The inhibition [8] was “not inhibited”, the IC50 [9] was 0.2 nM and the “inhibition of membrane-bound phosphatases” value ([10]; 300 nM, substrate pI2α1N-P) was “completely inhibits”. For the same compound, the “inhibition of phosphatasic activities by the phosphopeptide method” value ([10]; 10 µM, substrate not specified) was “inhibited most phosphatasic activities”, the IC50 ([10]; substrate pI2α1N-P, read-out: apparent IC50, high affinity (H)) was 0.15 nM and the IC50 ([10]; substrate pI2α1N-P, read-out: apparent IC50, low affinity (L)) was 5 nM. The inhibition [11] was “not inhibited”, the “inhibition of membrane-bound phosphatases” value ([12]; 300 nM) was “completely inhibits” and the IC50 ([12]; only one affinity, read-out: apparent IC50) was 0.18 nM. The IC50 [13] was 3600 nM, the IC50 [14] was 2 nM and the “effect on the GABAA current rundown” value [15] was “variable effect”.
